Measured values published in publication doi:10.1101/2025.04.25.650653, “Hierarchical small molecule inhibition of MYST acetyltransferases” (bioRxiv, 2025).
Read-outs that look alike come from different tables or passages of the source.

How the values were obtained:
NCI-60 cell line panel = assay: NCI-60 cell line screen, sulforhodamine B growth inhibition; format: cell-based, human; conditions: most cases, 48 h
KAT5 MYST domain [1] = conditions: MYST domains, cited from earlier work
[2] = system: histone acetylation biomarkers for KAT6, KAT7, KAT8, and KAT5; assay: Histone acetylation biomarker panel by western blot, MCF-7; format: cell-based
Excerpt: Figure 5. Comparative cellular analysis of orthogonal MYST inhibitor chemotypes. (A) Chemical structures of commonly used MYST KAT inhibitors. Annotated target: KAT enzyme specified as target of each inhibitor in scientific or commercial vendor literature. Biomarker: KAT-regulated histone acetylation biomarker found to be modulated by each compound in this study. (B) Cellular response of histone acetylation biomarkers for KAT6, KAT7, KAT8, and KAT5 to treatment with drug-like MYST acetyltransferases inhibitors. MCF-7 cells were treated with escalating dosages (0.1, 1, 10, 30 μM.) of each compound for 24 h. […] Data is representative of n=2 biological replicates. […]
(§1) Target engagement was assessed using the panel of MYST-dependent histone acetylation biomarkers defined above. […] While WM-3835 has been applied to study KAT7, its initial publication alludes to its ability to inhibit both KAT6A/B and KAT7.[14], [43] […] All commercial vendors currently market WM-3835 as a KAT7 inhibitor.
(§2) General materials and methods
Total protein on western blots was
(§3) manufacturer's protocols.
KAT capture and competitive chemoproteomic profiling
(§4) for 2 hours, then lyophilized.

KAT6A MYST domain [3] = conditions: MYST domains, cited from earlier work
H3K14Ac (KAT7) = assay: Histone acetylation biomarker western blot, MCF-7; format: cell-based; conditions: MCF-7 cells, 24 h
KAT7 MYST domain [4] = conditions: MYST domains, cited from earlier work
KAT6A MYST domain [5] = conditions: SPR, MYST domains, cited from earlier work
KAT7 MYST domain [6] = conditions: SPR, MYST domains, as previously described (WM-8014); ref https://www.nature.com/articles/s41586-019-1835-6; cited from earlier work
KAT5 MYST domain [7] = conditions: SPR, MYST domains, as previously described (WM-8014); ref https://www.nature.com/articles/s41586-019-1835-6; cited from earlier work
[8] = system: proteins captured by H3K14-CoA resin from HeLa nuclear extracts; assay: Proteome-wide competitive chemoproteomic profiling (H3K14-CoA beads, TMT LC-MS/MS); format: binding; conditions: for Log2FC (100nM) / (000nM): 100 nM WM-3835, H3K14-CoA beads; for Log2FC (100nM) / (000nM) / Log2FC (1000nM) / (000nM) / Log2FC (10000nM) / (000nM): TMT; for Log2FC (1000nM) / (000nM): 1000 nM WM-3835, H3K14-CoA beads; for Log2FC (10000nM) / (000nM): 10000 nM WM-3835, H3K14-CoA beads
H4K16Ac (KAT8) = assay: Histone acetylation biomarker western blot, MCF-7; format: cell-based; conditions: MCF-7 cells, 24 h, up to 30 μM
Method: as §1, §2
Total protein on western blots was […]
as §3
KAT capture and competitive chemoproteomic profiling […]
as §4
12 μL triethylamine. […] The beads were then magnetically separated […]
distinguish between tightly grouped and diffuse clusters, compactness was quantified by calculating the average pairwise Euclidean distance between all points within each cluster. Clusters with lower average

H3K23Ac (KAT6A/B) = assay: Histone acetylation biomarker western blot, MCF-7; format: cell-based; conditions: MCF-7 cells, 24 h
KAT6B MYST domain = system: KAT6B MYST domain; parameters: method as in https://www.nature.com/articles/s41586-018-0387-5; conditions: MYST domains, 0.4 uM AcCoA, H4 peptide; ref https://www.nature.com/articles/s41586-018-0387-5; cited from earlier work
KAT8 MYST domain = system: KAT8 MYST domain; parameters: method as in https://www.nature.com/articles/s41586-018-0387-5; conditions: MYST domains, 0.4 uM AcCoA, H4 peptide; ref https://www.nature.com/articles/s41586-018-0387-5; cited from earlier work
[9] = protein MBTD1 (Q05BQ5, NuA4/Tip60)
[10] = protein MRGBP (Q9NV56, NuA4/Tip60)
[11] = protein TRRAP (Q9Y4A5, NuA4/Tip60)

## C[C@H](CN[C@@H](C(=O)Nc1ccc(-c2cnn(C)c2)cn1)c1ccccc1)c1ccc(C#N)cc1 [CPI-1612]
NCI-60 cell line panel
  growth inhibition potency compared with PF-9363: much more potent

## O=C(NNS(=O)(=O)c1ccccc1F)c1cc(F)cc(-c2ccccn2)c1 [WM-1119]
KAT5 MYST domain [1]; 1 μM acetyl-CoA, ref https://www.nature.com/articles/s41586-019-1835-6, read-out: KAT5 IC50 in μM (paper2)
  IC50: 9.8 µM
[2]; MCF-7 cells, high concentrations
  effect on biomarkers other than KAT6A/B: untouched
KAT6A MYST domain [3]; 0.4 uM AcCoA, ref https://www.nature.com/articles/s41586-018-0387-5, read-out: KAT6A IC50 in μM (paper 1)
  IC50: 0.0063 µM
KAT6A MYST domain [3]; 1 μM acetyl-CoA, ref https://www.nature.com/articles/s41586-019-1835-6, read-out: KAT6A IC50 in μM (paper2)
  IC50: 0.077 µM
H3K14Ac (KAT7); 30 μM
  inhibition of KAT7 (H3K14Ac) at the highest concentration tested: little inhibition of KAT7
KAT7 MYST domain [4]; 1 μM acetyl-CoA, ref https://www.nature.com/articles/s41586-019-1835-6, read-out: KAT7 IC50 in μM (paper2)
  IC50: 0.578 µM

## Cc1cc(-c2ccccc2)cc(C(=O)NNS(=O)(=O)c2cccc(O)c2)c1F [WM-3835]
KAT6A MYST domain [5]; as previously described (WM-8014), ref https://www.nature.com/articles/s41586-019-1835-6
  Kd: 0.007 µM
KAT7 MYST domain [6]
  Kd: 0.034 µM
KAT5 MYST domain [7]
  Kd: 0.5 µM
KAT5 MYST domain [1]; 1 μM acetyl-CoA, WM-3835 sheet, ref https://www.nature.com/articles/s41586-019-1835-6, read-out: KAT5 IC50
  IC50: 0.312 µM
[2]; MCF-7 model, 24 h
  more potent inhibition of KAT6A/B (H3K23Ac) than KAT7 (H3K14Ac): ~ 100 fold
KAT6A MYST domain [3]; 1 μM acetyl-CoA, WM-3835 sheet, ref https://www.nature.com/articles/s41586-019-1835-6, read-out: KAT6A IC50
  IC50: 0.017 µM
[8]; 0, 0.1, 1, 10 μM
  competition of JADE2 versus BRPF3 capture: differential competition of JADE2 and BRPF3 capture
[8]; protein KAT14 (Q9H8E8, STAGA)
  Log2FC (100nM) / (000nM): 0.25
  Log2FC (1000nM) / (000nM): -0.01
  Log2FC (10000nM) / (000nM): -0.28
[8]; [9]
  Log2FC (100nM) / (000nM): 0.4
  Log2FC (1000nM) / (000nM): 0.54
  Log2FC (10000nM) / (000nM): 0.24
[8]; [10]
  Log2FC (100nM) / (000nM): 0.37
  Log2FC (1000nM) / (000nM): 0.49
  Log2FC (10000nM) / (000nM): 0.27
[8]; [11]
  Log2FC (100nM) / (000nM): -0.03
  Log2FC (1000nM) / (000nM): 0.04
  Log2FC (10000nM) / (000nM): -0.06
H4K16Ac (KAT8)
  inhibition of KAT8 (H4K16Ac): not KAT8
H3K23Ac (KAT6A/B)
  inhibition of KAT6A/B-catalyzed H3K23Ac: potently inhibits
KAT7 MYST domain [4]; 1 μM acetyl-CoA, WM-3835 sheet, ref https://www.nature.com/articles/s41586-019-1835-6, read-out: KAT7 IC50
  IC50: 0.03 µM

## Cc1cc(-c2ccccc2)cc(C(=O)NNS(=O)(=O)c2ccccc2)c1F [WM-8014]
KAT6A MYST domain [5]; ref https://www.nature.com/articles/s41586-018-0387-5
  Kd: 0.0051 µM
KAT6B MYST domain
  IC50: 0.028 µM
KAT5 MYST domain [1]; 5 uM AcCoA, H4 peptide, ref https://www.nature.com/articles/s41586-018-0387-5, read-out: KAT5 IC50
  IC50: 0.224 µM
KAT6A MYST domain [3]; 0.4 uM AcCoA, H4 peptide, ref https://www.nature.com/articles/s41586-018-0387-5, read-out: KAT6A IC50
  IC50: 0.0082 µM
H3K14Ac (KAT7)
  doses at which KAT7 (H3K14Ac) is inhibited: 10 to 30 µM
KAT8 MYST domain
  IC50: 11 µM
H4K16Ac (KAT8)
  inhibition of KAT8 (H4K16Ac): not KAT8
KAT7 MYST domain [4]; 1 uM AcCoA, H4 FL, ref https://www.nature.com/articles/s41586-018-0387-5, read-out: KAT7 IC50
  IC50: 0.342 µM
